The record followed here is patent US10100079B2, “Progesterone-cationic lipid hybrid as anticancer agent and the process of synthesis thereof” (Council of Scientific & Industrial Research, priority 2016, dated 2018).

SMILES strings stand for the structures. Some results are limits rather than exact numbers.

One data set relates to NIH-3T3. In words: MTT cytotoxicity assay, NIH-3T3. The data set is classed as cell-based, murine. As to conditions: Mus musculus, NIH3T3; MTT, 48 h continuous treatment, non-cancer cell; read-out: IC50 NIH-3T3. On the procedure: (§1) All cells were grown into mycoplasma free condition. […] All cells were grown up to 75-85% confluency after which cells were trypsinized, counted and seeded, in 96-well plates for cell viability studies, 6-well plates for apoptosis studies, 60 mm dish for cell cycle studies and in 25 cm^2 or 75 cm^2 tissue culture flasks for Western blot studies. The primary stock of the cationic progesterone molecules were made in cell culture grade DMSO and from that secondary stock was prepared by serial dilution with cell culture grade DMSO. The final working concentrations were prepared by diluting the secondary stock in cell culture media keeping the DMSO concentration in working solution below 0.2% with respect to cell culture medium. […] For this assay, 12-18 h before treatment cells were plated in 96-well plate at 5000 cells/well density. […] After completion of the treatment, 10 μL of MTT solution (5 mg/mL) was added in each well and incubated for 4 h. Then the media was removed carefully, and the reduced MTT was dissolved in 1:1 (v/v) DMSO/Methanol and absorbance was measured using multimode reader (Synergy H1, BioTek). Results were represented as percentage of viability={[A550(treated cells)−background]/[A550(untreated cells)−background]}×100. The result was summarized and provided as IC50 table in Table 1.
In general terms: Tetrazolium dyes change colour on reduction, which living cells bring about.

For the next data set, the system named is MDA-MB-231. In words: MTT cytotoxicity assay, MDA-MB-231. It counts as cell-based, human. The note with it: Homo sapiens, MDA-MB-231; MTT, 48 h continuous treatment; read-out: IC50 MDA-MB-231. As for the experimental part:
as §1

In the next data set the test system is COS-1. The experiment in a line: MTT cytotoxicity assay, COS-1. It counts as cell-based. The note with it: Chlorocebus aethiops, COS-1; MTT, 48 h continuous treatment, non-cancer cell; read-out: IC50 COS-1. As for the experimental part:
as §1

The next data set relates to MCF7. The experiment in a line: MTT cytotoxicity assay, MCF7. The note with it: Homo sapiens, MCF7; MTT, 48 h continuous treatment; read-out: IC50 MCF7. The data set is classed as cell-based. On the procedure: as §1
A further data set has as its system B16F10. The experiment in a line: MTT cytotoxicity assay, B16F10. As to conditions: Mus musculus, B16-F10; MTT, 48 h continuous treatment; read-out: IC50 B16F10. The data set is classed as cell-based, murine. On the procedure:
as §1

A further data set relates to CHO. In words: MTT cytotoxicity assay, CHO. It counts as cell-based, Chinese hamster. As to conditions: Cricetulus griseus, MTT, 48 h continuous treatment, non-cancer cell, read-out: IC50 CHO. As for the experimental part: as §1
In another data set the test system is OVCAR-3. In words: MTT cytotoxicity assay, OVCAR-3. It counts as cell-based. As to conditions: Homo sapiens, OVCAR-3; MTT, 48 h continuous treatment; read-out: IC50 OVCAR-3. As for the experimental part: as §1
The next data set deals with T47D. The experiment in a line: MTT cytotoxicity assay, T47D. As to conditions: Homo sapiens, MTT, 48 h continuous treatment, read-out: IC50 T47D. It counts as cell-based. As for the experimental part:
as §1

Data set [1] has as its system cancer cells T47D, OVCAR-3, MDA-MB-231, MCF-7 and B16F10. In words: MTT viability, all tested cancer cells (combination treatment study, FIG. 1A). It counts as cell-based. As to conditions: 48 h, 2.5 μM-40 μM. On the procedure: FIG. 1A: The viability studies of cancer cells T47D, OVCAR-3, MDA-MB-231, MCF-7 and B16F10 after 48 h of continuous treatment with compound 1 (10 μM), 10C [cationic lipid control molecule not containing progesterone moiety]
(§2) Cytotoxicity assay of the different compounds were carried out by using 3-(4,5-dimethylthiazol-2-yl)-2,5-diphenyltetrazolium bromide (MTT). For this assay, 12-18 h before treatment cells were plated in 96-well plate at 5000 cells/well density. After incubation cells were treated continuously for 48 h with respective compounds at different concentration (2.5 μM-40 μM). After completion of the treatment, 10 μL of MTT solution (5 mg/mL) was added in each well and incubated for 4 h. Then the media was removed carefully, and the reduced MTT was dissolved in 1:1 (v/v) DMSO/Methanol and absorbance was measured using multimode reader (Synergy H1, BioTek). Results were represented as percentage of viability={[A550(treated cells)−background]/[A550(untreated cells)−background]}×100. The result was summarized and provided as IC50 table in Table 1.
(§3) For combination treatment effect, cells were plated in 96 well plates at 5000 cells/well. […] Following 48 h of treatment cell viability was measured following above mentioned MTT study.

In data set [2] the test system is non-cancer cells CHO, COS-1 and NIH-3T3. In words: MTT viability, tested non-cancer cells (combination treatment study, FIG. 1B). The data set is classed as cell-based. As to conditions: 48 h, 2.5 μM-40 μM. On the procedure: FIG. 1B: The viability studies of non-cancer cells CHO, COS-1 and NIIH-3T3 after 48 h of continuous treatment with compound 1 (10 μM), 10C [cationic lipid control molecule not containing progesterone moiety]
as §2, §3

Turning to `CCCCCC[N+](C)(CCCCCC)CCNC(=O)CCC(=O)O[C@@H](C)[C@H]1CCC2C3CCC4=CC(=O)CC[C@]4(C)C3CC[C@@]21C` (stereo partly drawn) [Compound 6a, N-(2-(4-((1S)-1-((10R,13S,17S)-10,13-dimethyl-3-oxo-2,3,6,7,8,9,10,11,12,13,14,15,16,17-tetradecahydro-1H-cyclopenta[a]phenanthren-17-yl)ethoxy)-4-oxobutanamido)ethyl)-N-hexyl-N-methylhexan-1-aminium chloride], the IC50 in the data set with NIH-3T3 is greater than 20 µM; in the data set on MDA-MB-231, 5.78 ± 0.38 µM; in the data set on COS-1 it was greater than 20 µM; in the data set with MCF7 it was greater than 15 µM; in the data set on B16F10, greater than 15 µM; in the data set on CHO, 17.9 ± 0.56 µM. The half-inhibitory concentration (IC50) in the data set on OVCAR-3 turned out to be 13.9 ± 0.53 µM; in the data set with T47D it was 7.43 ± 0.76 µM.

Consider `CCCCCCCCCCCCCCCC[N+](C)(CCCCCCCCCCCCCCCC)CCNC(=O)CCC(=O)O[C@@H](C)[C@H]1CCC2C3CCC4=CC(=O)CC[C@]4(C)C3CC[C@@]21C` (stereo partly drawn) [Compound 6f, N-(2-(4-((1S)-1-((10R,13S,17S)-10,13-dimethyl-3-oxo-2,3,6,7,8,9,10,11,12,13,14,15,16,17-tetradecahydro-1H-cyclopenta[a]phenanthren-17-yl)ethoxy)-4-oxobutanamido)ethyl)-N-hexadecyl-N-methylhexadecan-1-aminium chloride], for which the IC50 with NIH-3T3 was greater than 20 µM; in the data set on MDA-MB-231 it was greater than 15 µM; in the data set on COS-1, greater than 20 µM; with MCF7, greater than 15 µM; in the data set with B16F10 it was greater than 15 µM; in the data set with CHO it was greater than 15 µM. In addition, the IC50 with OVCAR-3 and in the data set with T47D was greater than 15 µM each time.

`CCCCCCCCCCCCCCCCCC[N+](C)(CCCCCCCCCCCCCCCCCC)CCNC(=O)CCC(=O)O[C@@H](C)[C@H]1CCC2C3CCC4=CC(=O)CC[C@]4(C)C3CC[C@@]21C` (stereo partly drawn) [Compound 6g, N-(2-(4-((1S)-1-((10R,13S,17S)-10,13-dimethyl-3-oxo-2,3,6,7,8,9,10,11,12,13,14,15,16,17-tetradecahydro-1H-cyclopenta[a]phenanthren-17-yl)ethoxy)-4-oxobutanamido)ethyl)-N-methyl-N-octadecyloctadecan-1-aminium chloride]: the IC50 in the data set on NIH-3T3 was greater than 20 µM; in the data set with MDA-MB-231, greater than 15 µM; in the data set with COS-1, greater than 20 µM; in the data set on MCF7, greater than 15 µM; in the data set on B16F10, greater than 15 µM; in the data set on CHO, greater than 15 µM. The IC50 with OVCAR-3 and in the data set with T47D was greater than 15 µM throughout.

`CCCCCCCC[N+](C)(CCCCCCCC)CCNC(=O)CCC(=O)O[C@@H](C)[C@H]1CCC2C3CCC4=CC(=O)CC[C@]4(C)C3CC[C@@]21C.[Cl-]` (stereo partly drawn) [Compound 6b, N-(2-(4-((1S)-1-((10R,13S,17S)-10,13-dimethyl-3-oxo-2,3,6,7,8,9,10,11,12,13,14,15,16,17-tetradecahydro-1H-cyclopenta[a]phenanthren-17-yl)ethoxy)-4-oxobutanamido)ethyl)-N-methyl-N-octyloctan-1-aminium chloride]: the IC50 in the data set on NIH-3T3 was greater than 20 µM; with MDA-MB-231 it was 8.56 ± 0.52 µM; in the data set with COS-1, greater than 20 µM; with MCF7 it was 8.28 ± 0.12 µM; in the data set on B16F10 it was 9.95 ± 0.32 µM; in the data set with CHO, 17 ± 0.41 µM. Besides, the values for the IC50 with OVCAR-3 and in the data set with T47D were 11.9 ± 0.45 µM and 4.07 ± 0.23 µM, respectively. Besides, the “cell killing in all tested cancer cells” value in data set [1] is reported as “significant amount of cell killing”. Further, in data set [2], the “toxicity towards tested non-cancer cells” value was “largely non-toxic”.

For `CCCCCCCCCCCCCC[N+](C)(CCCCCCCCCCCCCC)CCNC(=O)CCC(=O)O[C@@H](C)[C@H]1CCC2C3CCC4=CC(=O)CC[C@]4(C)C3CC[C@@]21C` (stereo partly drawn) [Compound 6e, N-(2-(4-((1S)-1-((10R,13S,17S)-10,13-dimethyl-3-oxo-2,3,6,7,8,9,10,11,12,13,14,15,16,17-tetradecahydro-1H-cyclopenta[a]phenanthren-17-yl)ethoxy)-4-oxobutanamido)ethyl)-N-methyl-N-tetradecyltetradecan-1-aminium chloride], the IC50 was greater than 20 µM in the data set on NIH-3T3; greater than 15 µM in the data set with MDA-MB-231; greater than 20 µM in the data set on COS-1; greater than 15 µM with MCF7; greater than 15 µM with B16F10; greater than 15 µM in the data set on CHO. Also, the IC50 in the data set with OVCAR-3 and in the data set on T47D was greater than 15 µM in each case.

Regarding `CCCCCCCCCCCC[N+](C)(CCCCCCCCCCCC)CCNC(=O)CCC(=O)O[C@@H](C)[C@H]1CCC2C3CCC4=CC(=O)CC[C@]4(C)C3CC[C@@]21C.[Cl-]` (stereo partly drawn) [Compound 6d, N-(2-(4-((1S)-1-((10R,13S,17S)-10,13-dimethyl-3-oxo-2,3,6,7,8,9,10,11,12,13,14,15,16,17-tetradecahydro-1H-cyclopenta[a]phenanthren-17-yl)ethoxy)-4-oxobutanamido)ethyl)-N-dodecyl-N-methyldodecan-1-aminium chloride], the IC50 in the data set on NIH-3T3 is greater than 20 µM; in the data set on MDA-MB-231, 6.36 ± 0.19 µM; with COS-1, greater than 20 µM; in the data set with MCF7, 7.04 ± 0.28 µM; in the data set on B16F10, 9.54 ± 0.18 µM; with CHO, 17.5 ± 0.18 µM. Besides, the IC50 in the data set on OVCAR-3 was determined as 6.83 ± 0.13 µM; with T47D, 12.8 ± 0.43 µM. The “cell killing in all tested cancer cells” value in [1] is “significant amount of cell killing”. Moreover, the “toxicity towards tested non-cancer cells” value in data set [2] was “largely non-toxic”.

Usually IC50 stands for the concentration at which inhibition is half-maximal.
